Test results from US20250243220A1, “ATR INHIBITORS” (APREA THERAPEUTICS, INC., priority 2022, published 2025).

Columns and labels:
Type in all cases: cell-based
OVCAR-8 = experiment: IC50 assay by Western blot (APH-treated cells), OVCAR-8; conditions: OVCAR-8 cells; for IC50: Homo sapiens
Protocol: (§1) E. Treatment of Cells for IC50 Assay by Western Blot
(§2) The compound is stored as a 1 mM stock solution prepared in accordance with the Receipt of Compound SOP. The stock solution is diluted in cell media in two separate 1:10 dilution series.
(§3) 1. Arrange twelve 15-mL centrifuge tubes in a rack in two series and label them in accordance with Dilutions Series 1 and Dilution Series 2 shown in Table 1 and Table 2, respectively.
(§4) 2. Place 2.5 mL of prewarmed cell media in each of the […]. Place 2.25 mL of prewarmed cell media in the remaining tubes.
(§5) 3. Add 7.5 μL of 1 mM compound stock solution in the 3 μM tube. Mix well.
(§6) 4. Add 2.5 μL of 1 mM compound stock solution in the 1 μM tube. Mix well.
(§7) 5. For each series (separately), remove 250 μL from the leftmost tube and transfer to the next tube to the right. Repeat for each tube until the series is complete.
(§8) 6. Set aside the 1 μM tube, the 3 μM tube, and the 300 nM tube for discard.
(§9) 7. The cells to be treated will be in 6-well plates labeled by cell line. Remove the cells from the incubator and label the wells with the dosages to be administered.
(§10) 8. Arrange the dilution tubes in the rack in a manner that reflects the 6-well plate arrangement so as to avoid confusion when administering the dosage solutions to the appropriate wells.
(§11) 9. Aspirate the three wells in the top row of the first plate (labeled NT, APH+, and APH+) and replace with 2 mL fresh media (without drug compound).
(§12) 10. Aspirate the three wells in the bottom row of the first plate and replace each well with 2 mL of solution from the appropriate tube.
(§13) 11. Repeat step 10 for the next row of wells (top row second plate). and then for the final row of wells (bottom row second plate).
(§14) 12. Place both plates into the incubator for 30 minutes.
(§15) 13. After 30 minutes have elapsed, remove the plates from the incubator.
(§16) 14. Acquire stock solution of APH (5 mM) and add 2 μL of the APH stock solution to the center of each well except the well labeled NT.
(§17) 15. Swirl the plates carefully and gently to diffuse the APH throughout each well.
(§18) 16. Place the plates back in the incubator for 4 hours, at which point the cells will be harvested for analysis.
(§19) 17. Twenty minutes before harvesting (or 3 hours and 40 minutes after administration of APH), turn on a heat block suitable to heat Eppendorf tubes. Set the temperature to 95° C.
(§20) 18. Set up a number of Eppendorf tubes equal to the number of wells treated (i.e., twelve per two-plate drug administration), and label each tube with cell line, compound administered, dosage level, and date. Leave the tubes open.
(§21) 19. Add 200 mL DI water to a beaker.
(§22) 20. After 4 hours, remove treated plates from incubator.
(§23) 21. Aspirate media from all wells.
(§24) 22. Wash each well with 2 mL 1×PBS and aspirate.
(§25) 23. Sterilize vacuum line with 70% ethanol by spraying some into the nozzle while the vacuum is engaged. Shut off vacuum.
(§26) 24. Add Laemmli buffer to each well. For HCT116 Bcl/xl, OVCAR-3, and 22RV1 cells, add 300 μL per well; for OVCAR-8 and SKOV-3 cells, add 250 μL per well.
(§27) 25. Scrape the first well thoroughly. Place the scraper into the DI water between uses.
(§28) 26. Transfer the lysed cell debris mixture to the first tube carefully. The mixture will be viscous. Use a 1000-μL pipettor. Close the tube.
(§29) 27. Repeat steps 25 and 26 for each well.
(§30) 28. When all wells have been harvested, place all the tubes into the heat block. Place a weighted, heat-resistant object on top of the tubes to keep them closed.
(§31) 29. After 5 minutes, remove the tubes from the heat block and turn it off. Vortex each tube for 10 seconds. Be cautious of tubes popping open.
(§32) 30. Allow the tubes to come to room temperature and proceed to further analysis or store frozen at −20° C.

OVCAR-3 = experiment: IC50 assay by Western blot (APH-treated cells), OVCAR-3; conditions: OVCAR-3 cells; for IC50: Homo sapiens
Protocol: as §1, §2, §3, §4, §5, §6, §7, §8, §9, §10, §11, §12, §13, §14, §15, §16, §17, §18, §19, §20, §21, §22, §23, §24, §25, §26, §27, §28, §29, §30, §31, §32

22RV1 = experiment: IC50 assay by Western blot (APH-treated cells), 22RV1; conditions: 22RV1 cells; for IC50: Homo sapiens
Protocol: as §1, §2, §3, §4, §5, §6, §7, §8, §9, §10, §11, §12, §13, §14, §15, §16, §17, §18, §19, §20, §21, §22, §23, §24, §25, §26, §27, §28, §29, §30, §31, §32

MEC (+APH) = experiment: MEC (+APH)
HCT116 Bcl/xl = experiment: IC50 assay by Western blot (APH-treated cells), HCT116 Bcl/xl; conditions: for IC50: Homo sapiens, HCT-116
Protocol: as §1, §2, §3, §4, §5, §6, §7, §8, §9, §10, §11, §12, §13, §14, §15, §16, §17, §18, §19, §20, §21, §22, §23, §24, §25, §26, §27, §28, §29, §30, §31, §32

SKOV-3 = experiment: IC50 assay by Western blot (APH-treated cells), SKOV-3; conditions: SKOV-3 cells; for IC50: Homo sapiens, SK-OV-3
Protocol: as §1, §2, §3, §4, §5, §6, §7, §8, §9, §10, §11, §12, §13, §14, §15, §16, §17, §18, §19, §20, §21, §22, §23, §24, §25, §26, §27, §28, §29, §30, §31, §32

[1] = system: HCT Bcl/xl, OVCAR-3, OVCAR-8, SKOV-3, 22RV1 cell lines; experiment: Ave. IC50 across cell lines; conditions: average across cell lines

| IC50 (OVCAR-8) | IC50 (OVCAR-3) | IC50 (22RV1) | IC50 (HCT116 Bcl/xl) | IC50 (SKOV-3) | IC50 [1] | SMILES | PALD (Percent Activity at Lowest Dose tested) OVCAR-8 (OVCAR-8) | PALD (Percent Activity at Lowest Dose tested) OVCAR-3 (OVCAR-3) | PALD (Percent Activity at Lowest Dose tested) 22RV1 (22RV1) | minimal effective concentration (MEC (+APH)) | PALD (Percent Activity at Lowest Dose tested) HCT Bcl/xl (HCT116 Bcl/xl) | PALD (Percent Activity at Lowest Dose tested) SKOV-3 (SKOV-3) |
| --- | --- | --- | --- | --- | --- | --- | --- | --- | --- | --- | --- | --- |
| 1.68 nM | 2.19 nM | 8.28 nM | 3.49 nM | 2.39 nM | 3.61 nM | CNCc1cccc2c1OCCCCCCC(C)(O)CC(C)(C)S(=O)(=O)c1ccc(cc1)-c1cnc(N)c(n1)C(=O)N2 (racemic) [Compound A, 5-amino-22-hydroxy-22,24,24-trimethyl-13-(methylaminomethyl)-25,25-dioxo-15-oxa-25λ^6-thia-4,8,31-triazatetracyclo[24.2.2.1^2,6.0^9,14]hentriaconta-1(28),2(31),3,5,9(14),10,12,26,29-nonaen-7-one] | (71%) | (111%) | (73%) | 2e-05 µM | (74%) | (88%) |
| 4.47 nM | 2.15 nM | 2.99 nM | 4.63 nM | 2.62 nM | 3.37 nM | CNCc1cccc2c1OCCCCCCC(C)(O)CC1(CC1)S(=O)(=O)c1ccc(cc1)-c1cnc(N)c(n1)C(=O)N2 (racemic) [Compound B, 5-amino-22-hydroxy-22-methyl-13-(methylaminomethyl)-25,25-dioxo-spiro[15-oxa-25λ^6-thia-4,8,31-triazatetracyclo[24.2.2.1^2,6.0^9,14]hentriaconta-1(28),2,4,6(31),9(14),10,12,26,29-nonaene-24,1′-cyclopropane]-7-one] | (94%) | (121%) | (141%) | 4e-05 µM | (115%) | (106%) |
| 6.8 nM | 3.85 nM | 4.32 nM | 2.06 nM | 1.08 nM | 3.6 nM | CC1(O)CCCCCCOc2c(CN)cccc2NC(=O)c2nc(cnc2N)-c2ccc(cc2)S(=O)(=O)C(C)(C)C1 (racemic) [Compound C, 5-amino-13-(aminomethyl)-22-hydroxy-22,24,24-trimethyl-25,25-dioxo-15-oxa-25λ^6-thia-4,8,31-triazatetracyclo[24.2.2.1^2,6.0^9,14]hentriaconta-1(28),2(31),3,5,9(14),10,12,26,29-nonaen-7-one] | (73%) | (158%) | (90%) | 1e-05 µM | (65%) | (100%) |
| 3.63 nM | 1.02 nM | 3.5 nM | 4.53 nM | – | 2.7 nM | CC1(C)C[C@@](C)(O)CCCCCCOc2c(CN)cccc2NC(=O)c2nc(cnc2N)-c2ccc(cc2)S1(=O)=O (single isomer, unassigned) [Compound C-1] | (83%) | (115%) | (107%) | 1e-05 µM | (72%) | – |
| 4.97 nM | – | 7.02 nM | 7.77 nM | – | – | CNCc1cccc2c1OCCCCCC[C@H](O)CC(C)(C)S(=O)(=O)c1ccc(cc1)-c1cnc(N)c(n1)C(=O)N2 (single isomer, unassigned) [Compound G-1] | (85%) | – | (111%) | 4e-05 µM | (115%) | – |
| – | – | 8.57 nM | 7.9 nM | 4.94 nM | – | CNCc1cccc2c1OCCCCCC[C@@H](O)CC(C)(C)S(=O)(=O)c1ccc(cc1)-c1cnc(N)c(n1)C(=O)N2 (single isomer, unassigned) [Compound G-2] | – | – | (86%) | 4e-05 µM | (83%) | (92%) |
| – | – | 7.84 nM | 4.46 nM | – | – | CC1(C)C[C@@H](O)CCCCCCOc2c(CN)cccc2NC(=O)c2nc(cnc2N)-c2ccc(cc2)S1(=O)=O (single isomer, unassigned) [Compound H-1] | – | – | (71%) | 4e-05 µM | (89%) | – |
| – | – | – | 6.43 nM | – | – | CC1(C)C[C@H](O)CCCCCCOc2c(CN)cccc2NC(=O)c2nc(cnc2N)-c2ccc(cc2)S1(=O)=O (single isomer, unassigned) [Compound H-2] | – | – | – | 2e-05 µM | (89%) | – |
| 6.47 nM | – | 3.28 nM | 6.5 nM | – | – | CN(C)Cc1cccc2c1OCCCCCCC(C)(O)CC(C)(C)S(=O)(=O)c1ccc(cc1)-c1cnc(N)c(n1)C(=O)N2 (stereo not drawn) [Compound E, 5-amino-13-[(dimethylamino)methyl]-22-hydroxy-22,24,24-trimethyl-25,25-dioxo-15-oxa-25λ^6-thia-4,8,31-triazatetracyclo[24.2.2.1^2,6.0^9,14]hentriaconta-1(28),2,4,6(31),9(14),10,12,26,29-nonaen-7-one] | (139%) | – | (72%) | 8e-05 µM | (91%) | – |
| 31.5 nM | 8.23 nM | 10.8 nM | 14.1 nM | – | – | CN(C)Cc1cccc2c1OCCCCCCC(C)(O)CC1(CC1)S(=O)(=O)c1ccc(cc1)-c1cnc(N)c(n1)C(=O)N2 (stereo not drawn) [Compound F, 5-amino-13-[(dimethylamino)methyl]-22-hydroxy-22-methyl-25,25-dioxo-spiro[15-oxa-25λ^6-thia-4,8,31-triazatetracyclo[24.2.2.1^2,6.0^9,14]hentriaconta-1(28),2,4,6(31),9(14),10,12,26,29-nonaene-24,1′-cyclopropane]-7-one] | (81%) | (86%) | (96%) | 0.000156 µM | (104%) | – |
| – | 4.97 nM | 5.09 nM | 12.5 nM | 2.64 nM | – | CN(C)Cc1cccc2c1OCCCCCCC(O)CC(C)(C)S(=O)(=O)c1ccc(cc1)-c1cnc(N)c(n1)C(=O)N2 (stereo not drawn) [Compound G, 5-amino-13-[(dimethylamino)methyl]-22-hydroxy-24,24-dimethyl-25,25-dioxo-15-oxa-25λ^6-thia-4,8,31-triazatetracyclo[24.2.2.1^2,6.0^9,14]hentriaconta-1(28),2(31),3,5,9(14),10,12,26,29-nonaen-7-one] | – | (83%) | (104%) | 8e-05 µM | (109%) | (97%) |
